Test system: SH-SY5Y cells
Assay: Rotenone cell model (PD) with immunoblotting of α-synuclein oligomer
Assay type: cell-based
Settings: 5 μM rotenone, QD202 at 0.1 μM, 0.2 μM, 0.5 μM and 1 μM, 24 hours
Procedure: The rotenone cell model is a commonly used Parkinson's disease (PD) in vitro cell model.
SH-SY5Y cells are cultured in complete medium composed of high-glucose DMEM and 10% fetal bovine serum, placed in an incubator maintained at 37° C. and 5% carbon dioxide for culture. On the day before the rotenone model is established, cells are passaged from 60 mm dishes to 6-well plates, and QD202 treatment experiments are conducted 24 hours after cell passage.
After 24 hours of SH-SY5Y culture, the rotenone model is established. A mixed solution containing 5 μM rotenone and various concentrations of QD202 (0, 0.1 μM, 0.2 μM, 0.5 μM, 1 μM, 5 μM, 10 μM) is prepared with complete medium. SH-SY5Y cells are removed from the culture medium, the mixed solution is added and mixed well, and incubated in the incubator for 24 hours.
After 24 hours of QD202 treatment, the cells are placed on ice, and 200 μL of cell lysis buffer containing protease inhibitors (25 mM Tris-HCL, 150 mM NaCl, 1 mM EDTA, 1% NP40, 5% Glycerol) is added. The cells are collected into the lysis buffer and the collected samples are rotated and lysed at 4° C. for 30 minutes.
The samples are centrifuged at 4° C. for 10 minutes, and the supernatant is collected. 180 μL of the supernatant is retained and 60 μL of 4×loading buffer is added. […]

With “QD202: polypeptide synthesized according to the amino acid sequence as set forth in SEQ ID NO. 1 (YGRKKRRQRRRSPVDVVCS; QD202)” the “increase in α-synuclein oligomer caused by rotenone treatment” value was “dose-dependently reduce”.

From US20240343762A1, “USE OF PROTON PUMP MODULATOR IN PREPARING REAGENT” (SHANGHAI QUIETD BIOTECHNOLOGY CO. LTD., priority 2021, published 2024)
